In US6794395B1, “Substituted indolinones, their manufacture and their use as medicaments” (Boehringer Ingelheim Pharma GmbH & Co. KG, priority 1999, dated 2004):

Tested on: not listed separately
Test: Tolerance test on mice (oral LD50)
Conditions: mouse, in vivo, read-out: approximate oral LD50
Procedure: In addition the compound of Example 1 (6) was tested on mice for its tolerance. The approximate oral LD50 for this compound is over 1,000 mg/kg. The compounds of general formula I are therefore well tolerated.

SMILES	LD50 [mg/kg]
COc1cc2c(cc1OC)/C(=C(/Nc1ccc(CN(C)C)cc1)c1ccccc1)C(=O)N2 [Example 1 (6), 3-(Z)-(1-(4-(dimethylaminomethyl)-anilino]-1-phenyl-methylidene}-5,6-dimethoxy-2-indolinone]	> 1000

Tested on: Human umbilical endothelial cells (HUVEC)
Test: Inhibition of VEGF165-stimulated HUVEC proliferation (3H-thymidine incorporation)
Format: cell-based
Conditions: HUVEC proliferation stimulated with 5 ng/ml VEGF165 and 10 μg/ml heparin, 76 h + 16 h 3H-thymidine
Procedure: Human umbilical endothelial cells (HUVEC) were cultivated in IMDM (Gibco BRL), supplemented with 10% foetal calf serum (FBS) (Sigma), 50 μM of β-mercaptoethanol (Fluka), standard antibiotics, 15 μg/ml of endothelial cell growth factor (ECGS, Collaborative Biomedical Products) and 100 μg/ml of heparin (Sigma) on gelatine-coated culture dishes (0.2% gelatine, Sigma) at 37° C., under 5% CO2 in a water-saturated atmosphere.
In order to investigate the inhibitory activity of the compounds according to the invention the cells were “starved” for 16 hours, i.e. kept in culture medium without growth factors (ECGS+heparin). The cells were detached from the culture dishes using trypsin/EDTA and washed once in serum-containing medium. Then they were seeded out in amounts of 2.5×10^3 cells per well.
The proliferation of the cells was stimulated with 5 ng/ml of VEGF165 (vascular endothelial growth factor; H. Weich, GBF Braunschweig) and 10 μg/ml of heparin. As a control, 6 wells in each dish were not stimulated.
The compounds according to the invention were dissolved in 100% dimethylsulphoxide and added to the cultures in various dilutions as triple measurements, the maximum dimethyl sulphoxide concentration being 0.3%.
The cells were incubated for 76 hours at 37° C., then for a further 16 hours ^3H-thymidine (0.1 μCi/well, Amersham) was added in order to determine the DNA synthesis. Then the radioactively labelled cells were immobilised on filter mats and the radioactivity incorporated was measured in a β-counter. In order to determine the inhibitory activity of the compounds according to the invention the mean value of the non-stimulated cells was subtracted from the mean value of the factor-stimulated cells (in the presence or absence of the compounds according to the invention).
The relative cell proliferation was calculated as a percentage of the control (HUVEC without inhibitor) and the concentration of active substance which inhibits the proliferation of the cells by 50% (IC50) was determined.

SMILES	IC50 [nM]
COc1cc2c(cc1OC)/C(=C(/Nc1ccc(N(CCN(C)C)C(C)=O)cc1)c1ccccc1)C(=O)N2 [1 (17), 3-(Z)-(1-{4-[N-acetyl-N-(2-dimethylamino-ethyl)-amino]-anilino}-1-phenyl-methylidene)-5,6-dimethoxy-2-indolinone]	40
COc1cc2c(cc1OC)/C(=C(/Nc1ccc(N(C)C(=O)CN(C)C)cc1)c1ccccc1)C(=O)N2 [1 (8), 3-(Z)-{1-[4-(N-dimethylaminomethylcarbonyl-N-methyl-amino)-anilino]-1-phenyl-methylidene}-5,6-dimethoxy-2-indolinone]	50
COc1cc2c(cc1OC)/C(=C(/Nc1ccc(CN(C)C)cc1)c1ccccc1)C(=O)N2 [Example 1 (6), 3-(Z)-(1-(4-(dimethylaminomethyl)-anilino]-1-phenyl-methylidene}-5,6-dimethoxy-2-indolinone]	20
COc1cc2c(cc1OC)/C(=C(/Nc1ccc(CN3CCCCC3)cc1)c1ccccc1)C(=O)N2 [Example 1, 3-(Z)-{1-[4-(piperidin-1-yl-methyl)-anilino]-1-phenyl-methylidene}-5,6-dimethoxy-2-indolinone]	30
COc1cc2c(cc1OC)/C(=C(/Nc1ccc(N(CCCN(C)C)C(C)=O)cc1)c1ccccc1)C(=O)N2 [1 (18), 3-(Z)-(1-{4-[N-acetyl-N-(3-dimethylamino-propyl)-amino]-anilino}-1-phenyl-methylidene)-5,6-dimethoxy-2-indolinone]	40
CC/C(Nc1ccc(N(C)C(=O)CN(C)C)cc1)=C1/C(=O)Nc2cc(OC)c(OC)cc21 [1 (50), 3-(Z)-{1-[4-(N-dimethylaminomethylcarbonyl-N-methylamino)-anilino]-1-ethyl-methylidene}-5,6-dimethoxy-2-indolinone]	830
COc1cc2c(cc1OC)/C(=C(/Nc1ccc(CN(C)Cc3ccccc3)cc1)c1ccccc1)C(=O)N2 [1 (3), 3-(Z)-(1-{4-[(N-benzyl-N-methyl-amino)-methyl)-anilino}-1-phenyl-methylidene)-5,6-dimethoxy-2-indolinone]	270
COc1cc2c(cc1OC)/C(=C(/Nc1ccc(CCN3CCC(C(=O)N(C)C)CC3)cc1)c1ccccc1)C(=O)N2 [Example 3, 3-(Z)-(1-{4-[2-(4-dimethylcarbamoyl-piperidin-1-yl)-ethyl]-anilino}-1-phenyl-methylidene)-5,6-dimethoxy-2-indolinone]	50
Nc1ccc2c(c1)NC(=O)/C2=C(\Nc1ccc(CN2CCCCC2)cc1)c1ccccc1 [Example 4, 6-amino-3-(Z)-{1-[4-(piperidin-1-yl-methyl)-anilino]-1-phenyl-methylidene}-2-indolinone]	40
